Assay results as given in patent US20240174727A1, “LONG-ACTING NATRIURETIC PEPTIDES AND USES THEREOF” (Eli Lilly and Company, priority 2022, published 2024).

Target: T1, rat NPRA (Rattus norvegicus, UniProt P18910)
T1 construct: Full-Length cDNA Cloning and Generation of Cell Lines Overexpressing Natriuretic Peptide Receptors (NPRs); expressed in transfected cells; host or cells: Jump-in T-Rex HEK293 cells, pJTI R4 CMV-TO MCS pA vector, tetracycline induction
T1 sequence (P18910 29-1057): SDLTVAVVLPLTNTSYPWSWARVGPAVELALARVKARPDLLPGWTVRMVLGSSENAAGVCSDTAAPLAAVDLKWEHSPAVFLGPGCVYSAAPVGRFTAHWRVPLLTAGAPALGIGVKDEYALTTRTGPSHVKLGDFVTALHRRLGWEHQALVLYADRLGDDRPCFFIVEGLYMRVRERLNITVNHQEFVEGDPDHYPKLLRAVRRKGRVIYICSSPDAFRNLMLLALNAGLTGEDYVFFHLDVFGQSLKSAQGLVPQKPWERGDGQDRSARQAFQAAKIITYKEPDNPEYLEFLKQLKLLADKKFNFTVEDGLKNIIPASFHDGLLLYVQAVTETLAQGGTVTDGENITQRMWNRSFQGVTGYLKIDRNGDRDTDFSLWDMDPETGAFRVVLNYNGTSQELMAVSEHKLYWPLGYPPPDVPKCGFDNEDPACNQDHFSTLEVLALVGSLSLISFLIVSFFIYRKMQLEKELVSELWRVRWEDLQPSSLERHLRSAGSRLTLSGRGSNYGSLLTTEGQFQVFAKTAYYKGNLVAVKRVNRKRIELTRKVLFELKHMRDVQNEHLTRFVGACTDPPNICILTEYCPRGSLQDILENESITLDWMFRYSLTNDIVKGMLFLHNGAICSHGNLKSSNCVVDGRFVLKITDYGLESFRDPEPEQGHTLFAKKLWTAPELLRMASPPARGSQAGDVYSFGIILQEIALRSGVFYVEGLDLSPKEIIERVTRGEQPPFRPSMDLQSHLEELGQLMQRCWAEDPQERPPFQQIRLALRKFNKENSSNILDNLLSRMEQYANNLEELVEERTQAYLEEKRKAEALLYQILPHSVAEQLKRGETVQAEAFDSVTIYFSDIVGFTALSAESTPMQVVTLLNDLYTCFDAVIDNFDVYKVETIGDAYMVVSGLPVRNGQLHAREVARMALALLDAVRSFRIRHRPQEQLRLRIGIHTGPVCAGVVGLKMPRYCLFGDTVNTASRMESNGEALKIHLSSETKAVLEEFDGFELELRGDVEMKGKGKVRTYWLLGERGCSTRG
Assay: Rat NPRA cGMP activity assay (HTRF) in HEK293 cells overexpressing NPRA
Format: cell-based
Conditions: cGMP Assay (EC50, pM) w/BSA rNPRA, assay buffer with 0.1% BSA
Protocol: All sequences were verified by full-length sequencing performed by ACGT DNA Sequencing Services (Wheeling, IL). The target cDNA was cloned into pJTI R4 CMV-TO MCS pA vector and then co-transfected with pJT1R4 Int vector into Jump-in™ T-Rex™ HEK293 cells for mammalian inducible expression using Jump-in™ T-Rex™ HEK293 kit and Lipofectamine LTX and Plus Reagent following manufacturer's protocols, as briefly described below.
Jump-in™ T-Rex™ HEK293 cells were plated in a BioCOAT® poly-D-lysine coated 6-well plate (Becton Dickinson, cat no. 354413) at 1 million cells/well in 2 mL culture medium and incubated for 18 h at 37° C. and 5% CO2 to 50-70% confluence. A cDNA mix was made in a 50 mL tube by adding 1.5 μg target cDNA, 1.5 μg pJT1R4 Int vector, 3 μL Plus Reagent, and 300 μL Opti-MEM I sequentially into the tube. A reagent mix was made in a separate 50 mL tube by adding 7.5 μL Lipofectamine LTX into 300 μL Opti-MEM I. The mixtures were incubated for 5 min at room temperature. The cDNA mix was then transferred into the reagent mix, mixed well, and incubated for additional 30 min at room temperature. A 500 μL of cDNA/Lipofectamine complex was then transferred to the wells of the cell plate in which the culture medium was changed to 2 mL of transfection medium containing DMEM with 4.5 g/L D-glucose supplemented with 10% FBS-HI and 20 mM HEPES. Transfected cells were cultured for 48 h in an incubator at 37° C. and 5% CO2. A subclone or pool from each overexpressing cell line was maintained in culture medium with the addition of 2 mg/mL G418 sulfate for the clone selection based on its built-in resistance to G418 sulfate for at least 3 weeks with medium changed every 2-3 days.
NPRs were overexpressed in T-Rex™ HEK293 cells following the induction with 300 ng/mL tetracycline in culture medium for 48 h. Induced cell lines in an exponential growth phase were treated with 0.05% trypsin-EDTA for a few seconds at room temperature, harvested in cell medium containing FBS to neutralize the trypsin, counted, and cryopreserved at the density of 2 million cells/mL in cell preservation solution containing FBS-HI with 5% DMSO. Cryopreserved cells were stored at −80° C. for a few days prior to transferring to a liquid nitrogen tank. Induced cell lines were then used for suspension assays to measure the activity of polypeptides to stimulate cGMP production in cGMP assays or for the preparation of cell membranes to measure the binding activity of polypeptides in competitive radioligand binding assays, as described below.
Test polypeptides were added starting at 10 μM concentration and at 10-fold decreasing concentrations to obtain 8-point concentration-response curves (i.e., 10 μM to 1 pM). The quantity of cGMP generated was detected using HTRF® technology and normalized to maximum amount produced by 100 nM amidated rat ANP and the minimum amount produced by assay buffer. Detailed steps are outlined below.
Stock solutions of test polypeptides (2 mM) dissolved in DMSO were first diluted 100-fold in assay buffer containing HBSS with Ca^2+ and Mg^2+, 5 mM HEPES, 0.5 mM IBMX, and 0.1% BSA or 0.1% casein (pH 7.4). The polypeptides were further serially diluted in 1:10 dilution steps in assay buffer containing 0.1% BSA or 0.1% casein to generate 8-point 2× working stock solutions ranging from 20 μM to […].
A 10 μL cell suspension containing 4000 cells was plated in Costar® half-area white opaque 96-well plates (Corning, cat no. 3693). Then 10 μL of assay buffer (basal activity), 200 nM of amidated rat ANP (maximum activity) or 2× working stock solutions of test polypeptides were transferred into the plate. Final concentration of DMSO in each well was 0.5%. The plate was shaken for 15 sec and then incubated for 40 min at room temperature.
The cGMP generated was measured using cGMP kit following the manufacturer's directions, as described below.

`CC[C@H](C)[C@@H]1NC(=O)[C@H](CCCNC(=N)N)NC(=O)[C@H](CC(=O)O)NC(=O)[C@H]([C@@H](C)CC)NC(=O)[C@H](CCCNC(=N)N)NC(=O)[C@H](CCCCN)NC(=O)CNC(=O)[C@H](Cc2ccccc2)NC(=O)[C@@H](NC(=O)[C@H](CO)NC(=O)[C@H](CO)NC(=O)[C@H](CCCNC(=N)N)NC(=O)[C@H](CCCNC(=N)N)NC(=O)[C@H](Cc2ccncc2)NC(=O)[C@H](CO)NC(=O)CCOCCOCCOCCOCCOCCOCCOCCOCCOCCOCCOCCOCCOCCOCCOCCOCCOCCOCCOCCOCCOCCOCCOCCOCCNC(=O)CNC(=O)[C@H](CCCCN)NC(=O)[C@H](CCC(=O)O)NC(=O)[C@H](CCCCN)NC(=O)[C@H](CCC(=O)O)NC(=O)[C@H](CCCCN)NC(=O)[C@H](CCC(=O)O)NC(=O)CC[C@H](NC(=O)CCCCCCCCCCCCCCCCCCC(=O)O)C(=O)O)CSCSC[C@@H](C(=O)N2CCC[C@H]2C(=O)N[C@@H](CO)C(=O)N[C@@H](Cc2ccccc2)C(=O)N[C@@H](CCCNC(=N)N)C(=O)N[C@@H](Cc2c[nH]cn2)C(=O)NCC(=O)N[C@@H](CO)C(=O)N2CCC[C@H]2C(=O)N[C@@H](CO)C(=O)N[C@@H](CO)C(=O)NCC(=O)N[C@@H](C)C(=O)N2CCC[C@H]2C(=O)N2CCC[C@H]2C(=O)N2CCC[C@H]2C(=O)N[C@@H](CO)C(N)=O)NC(=O)CNC(=O)[C@H](CC(C)C)NC(=O)CNC(=O)[C@H](CO)NC(=O)[C@H](Cc2ccc(O)cc2)NC(=O)[C@H](Cc2c[nH]cn2)NC(=O)CNC1=O` [Example 115] showed an EC50 of 100000 pM.
